Results published in patent US20250313572A1, “MACROCYCLIC MCL-1 INHIBITORS AND METHODS OF USE” (AbbVie Inc., priority 2017, published 2025).
Read-outs that look alike come from different tables or passages of the source.

How the values were obtained:
[1] = tested on: NCI-H929 human multiple myeloma tumor cell line; test: NCI-H929 cell viability assay (CellTiter-Glo, 24 hours); assay type: cell-based; conditions: Homo sapiens, NCI-H929, 24 h, read-out: H929 Viability IC50 (μM, 10% FBS), 10% FBS, 24 hours of compound treatment
GST-MCL-1 = GST-MCL-1 (Homo sapiens, UniProt Q07820); test: TR-FRET MCL-1 binding assay (competition with probe F-Bak)
Sequence of GST-MCL-1 (Q07820 whole entry): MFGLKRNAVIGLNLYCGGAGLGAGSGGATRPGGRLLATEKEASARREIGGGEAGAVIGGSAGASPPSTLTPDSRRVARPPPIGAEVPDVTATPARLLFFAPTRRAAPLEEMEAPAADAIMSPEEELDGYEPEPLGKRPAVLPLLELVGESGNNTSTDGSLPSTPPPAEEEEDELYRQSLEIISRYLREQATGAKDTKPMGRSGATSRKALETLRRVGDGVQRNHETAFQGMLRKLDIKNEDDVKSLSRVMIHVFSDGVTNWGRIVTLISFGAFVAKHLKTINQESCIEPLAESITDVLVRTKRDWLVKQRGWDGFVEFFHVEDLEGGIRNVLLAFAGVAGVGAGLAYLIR
Method in brief: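 Test compounds, 11 three-fold dilutions from 25 μM final, incubated 2 hours at room temperature with GST-MCL-1, F-Bak probe and Tb-anti-GST antibody. TR-FRET read at 340/35 nm excitation with 520/525 and 495/510 nm emission. Run without human serum and with 10% HS.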

[2] = tested on: AMO-1 human multiple myeloma tumor cell line; test: AMO-1 cell viability assay (CellTiter-Glo, 24 hours); assay type: cell-based; conditions: Homo sapiens, AMO1, 24 h, read-out: AMO-1 Viability IC50 (μM, 10% FBS), 10% FBS, 24 hours of compound treatment
Method: Each concentration was tested in duplicate at least 3 independent times. A luminescent signal proportional to the number of viable cells following 24 hours of compound treatment was determined using the CellTiter-Glo® Luminescent Cell Viability Assay according to the manufacturer's recommendations (Promega Corp., Madison, WI). The plates were read in a Perkin Elmer Envision using a Luminescence protocol. To generate dose response curves the data is normalized to percent viability by setting the averages of the staurosporine (10 μM) and DMSO only control wells to 0% and 100% viability respectively.

[3] = MCL-1 Binding Ki (nM, 10% HS), in the presence of 10% HS (human serum)
[4] = without HS, read-out: MCL-1 Binding Ki

Row | Compound | IC50 [1] [nM] | Ki (GST-MCL-1; [3]) [nM] | Ki (GST-MCL-1; [4]) [nM] | IC50 [2] [nM]
1 | COCCOCCOCCN(CCOCCOCCOC)c1nccc(COc2ccc3cc2C[C@H](C(=O)O)Oc2ncnc4sc(-c5ccc(F)cc5)c(c24)-c2c(C)c(Cl)c(c(Cl)c2C)O[C@H](CN2CCN(C)CC2)CO3)n1 [Example 93, (7R,16R)-10-{[2-(bis{2-[2-(2-methoxyethoxy)ethoxy]ethyl}amino)pyrimidin-4-yl]methoxy}-19,23-dichloro-1-(4-fluorophenyl)-20,22-dimethyl-16-[(4-methylpiperazin-1-yl)methyl]-7,8,15,16-tetrahydro-18,21-etheno-13,9-(metheno)-6,14,17-trioxa-2-thia-3,5-diazacyclononadeca[1,2,3-cd]indene-7-carboxylic Acid] | 4.24 | 4.34 | 0.748 | 5.53
2 | Cc1c(Cl)c2c(Cl)c(C)c1-c1c(-c3ccc(F)cc3)sc3ncnc(c13)O[C@@H](C(=O)O)Cc1cc(ccc1OCc1ccnc(N3CCC(C)(N4CCOCC4)CC3)n1)OC[C@@H](CN1CCN(C)CC1)O2 [Example 144, (7R,16R)-19,23-dichloro-1-(4-fluorophenyl)-20,22-dimethyl-10-({2-[4-methyl-4-(morpholin-4-yl)piperidin-1-yl]pyrimidin-4-yl}methoxy)-16-[(4-methylpiperazin-1-yl)methyl]-7,8,15,16-tetrahydro-18,21-etheno-13,9-(metheno)-6,14,17-trioxa-2-thia-3,5-diazacyclononadeca[1,2,3-cd]indene-7-carboxylic Acid] | 7.7 | > 444 | 10.9 | 1.78
3 | Cc1c(Cl)c2c(Cl)c(C)c1-c1c(-c3ccc(F)cc3)sc3ncnc(c13)O[C@@H](C(=O)O)Cc1cc(ccc1OCc1ccnc(C3CCS(=O)(=O)CC3)n1)OC[C@@H](CN1CCN(C)CC1)O2 [Example 40, (7R,16R)-19,23-dichloro-10-{[2-(1,1-dioxo-1λ^6-thian-4-yl)pyrimidin-4-yl]methoxy}-1-(4-fluorophenyl)-20,22-dimethyl-16-[(4-methylpiperazin-1-yl)methyl]-7,8,15,16-tetrahydro-18,21-etheno-13,9-(metheno)-6,14,17-trioxa-2-thia-3,5-diazacyclononadeca[1,2,3-cd]indene-7-carboxylic Acid] | 4.74 | 0.085 | 0.018 | 3
4 | COCCOCCOCCOc1ccc(COc2ccc3cc2C[C@H](C(=O)O)Oc2ncnc4sc(-c5ccc(F)cc5)c(c24)-c2c(C)c(Cl)c(c(Cl)c2C)O[C@H](CN2CCN(C)CC2)CO3)nc1 [Example 162, (7R,16R)-19,23-dichloro-1-(4-fluorophenyl)-10-[(5-{2-[2-(2-methoxyethoxy)ethoxy]ethoxy}pyridin-2-yl)methoxy]-20,22-dimethyl-16-[(4-methylpiperazin-1-yl)methyl]-7,8,15,16-tetrahydro-18,21-etheno-13,9-(metheno)-6,14,17-trioxa-2-thia-3,5-diazacyclononadeca[1,2,3-cd]indene-7-carboxylic Acid] | 14.3 | 0.934 | 0.159 | 12
5 | CO[C@@H]1CO[C@H]2[C@@H]1OC[C@H]2Oc1nccc(COc2ccc3cc2C[C@H](C(=O)O)Oc2ncnc4sc(-c5ccc(F)cc5)c(c24)-c2c(C)c(Cl)c(c(Cl)c2C)O[C@H](CN2CCN(C)CC2)CO3)n1 [Example 146, (7R,16R)-19,23-dichloro-1-(4-fluorophenyl)-10-[(2-{[(3R,3aR,6R,6aR)-6-methoxyhexahydrofuro[3,2-b]furan-3-yl]oxy}pyrimidin-4-yl)methoxy]-20,22-dimethyl-16-[(4-methylpiperazin-1-yl)methyl]-7,8,15,16-tetrahydro-18,21-etheno-13,9-(metheno)-6,14,17-trioxa-2-thia-3,5-diazacyclononadeca[1,2,3-cd]indene-7-carboxylic Acid] | 4.08 | 0.041 | 0.001 | 2.23
6 | COCCOCCOCCOCCOC[C@@H]1CCCC[C@H]1c1nccc(COc2ccc3cc2C[C@H](C(=O)O)Oc2ncnc4sc(-c5ccc(F)cc5)c(c24)-c2c(C)c(Cl)c(c(Cl)c2C)O[C@H](CN2CCN(C)CC2)CO3)n1 (relative stereo) [Example 120, (7R,16R)-19,23-dichloro-1-(4-fluorophenyl)-20,22-dimethyl-16-[(4-methylpiperazin-1-yl)methyl]-10-({2-[(1R*,2R*)-2-(2,5,8,11,14-pentaoxapentadecan-1-yl)cyclohexyl]pyrimidin-4-yl}methoxy)-7,8,15,16-tetrahydro-18,21-etheno-13,9-(metheno)-6,14,17-trioxa-2-thia-3,5-diazacyclononadeca[1,2,3-cd]indene-7-carboxylic Acid] | 0.386 | – | 26.3 | 0.231
7 | COCCOCCOCCOc1cccc(-c2nccc(COc3ccc4cc3C[C@H](C(=O)O)Oc3ncnc5sc(-c6ccc(F)cc6)c(c35)-c3c(C)c(Cl)c(c(Cl)c3C)O[C@H](CN3CCN(C)CC3)CO4)n2)c1 [Example 104, (7R,16R)-19,23-dichloro-1-(4-fluorophenyl)-10-{[2-(3-{2-[2-(2-methoxyethoxy)ethoxy]ethoxy}phenyl)pyrimidin-4-yl]methoxy}-20,22-dimethyl-16-[(4-methylpiperazin-1-yl)methyl]-7,8,15,16-tetrahydro-18,21-etheno-13,9-(metheno)-6,14,17-trioxa-2-thia-3,5-diazacyclononadeca[1,2,3-cd]indene-7-carboxylic Acid] | 0.0557 | 0.089 | 0.009 | 0.0488
8 | COc1ccccc1-c1nccc(COc2ccc3cc2C[C@H](C(=O)O)Oc2ncnc4sc(-c5ccc(F)cc5)c(c24)-c2ccc(c(Cl)c2C)O[C@H](CN2CCN(C[C@H]4O[C@H](OC)[C@@H](OC)[C@@H](OC)[C@@H]4OC)CC2)CO3)n1 [Example 6, methyl 6-(4-{[(7R,16R,21S)-7-carboxy-19-chloro-1-(4-fluorophenyl)-10-{[2-(2-methoxyphenyl)pyrimidin-4-yl]methoxy}-20-methyl-7,8,15,16-tetrahydro-18,21-etheno-13,9-(metheno)-6,14,17-trioxa-2-thia-3,5-diazacyclononadeca[1,2,3-cd]inden-16-yl]methyl}piperazin-1-yl)-6-deoxy-2,3,4-tri-O-methyl-a-D-mannopyranoside] | 24 | 0.221 | 0.014 | 30
9 | Cc1c(Cl)c2c(Cl)c(C)c1-c1c(-c3ccc(F)cc3)sc3ncnc(c13)O[C@@H](C(=O)O)Cc1cc(ccc1OCc1ccnc(-c3ccc(OC[C@H]4CN(C)CCO4)cc3)n1)OC[C@@H](CN1CCN(C)CC1)O2 [Example 158, (7R,16R)-19,23-dichloro-1-(4-fluorophenyl)-20,22-dimethyl-10-{[2-(4-{[(2R)-4-methylmorpholin-2-yl]methoxy}phenyl)pyrimidin-4-yl]methoxy}-16-[(4-methylpiperazin-1-yl)methyl]-7,8,15,16-tetrahydro-18,21-etheno-9,13-(metheno)-6,14,17-trioxa-2-thia-3,5-diazacyclononadeca[1,2,3-cd]indene-7-carboxylic Acid] | 1.31 | 0.41 | 0.003 | 0.258
10 | COCCOCCN(CCOCCOC)c1nccc(COc2ccc3cc2C[C@H](C(=O)O)Oc2ncnc4sc(-c5ccc(F)cc5)c(c24)-c2c(C)c(Cl)c(c(Cl)c2C)O[C@H](CN2CCN(C)CC2)CO3)n1 [Example 108, (7R,16R)-10-[(2-{bis[2-(2-methoxyethoxy)ethyl]amino}pyrimidin-4-yl)methoxy]-19,23-dichloro-1-(4-fluorophenyl)-20,22-dimethyl-16-[(4-methylpiperazin-1-yl)methyl]-7,8,15,16-tetrahydro-18,21-etheno-13,9-(metheno)-6,14,17-trioxa-2-thia-3,5-diazacyclononadeca[1,2,3-cd]indene-7-carboxylic Acid] | 4.17 | 6.62 | 1.08 | 3.43
11 | Cc1c(Cl)c2c(Cl)c(C)c1-c1c(-c3ccc(F)cc3)sc3ncnc(c13)O[C@@H](C(=O)O)Cc1cc(ccc1OCc1ccnc(-c3ccc(OC[C@H]4CN(C)CCCO4)cc3)n1)OC[C@@H](CN1CCN(C)CC1)O2 [Example 175, (7R,16R)-19,23-dichloro-1-(4-fluorophenyl)-20,22-dimethyl-10-{[2-(4-{[(2R)-4-methyl-1,4-oxazepan-2-yl]methoxy}phenyl)pyrimidin-4-yl]methoxy}-16-[(4-methylpiperazin-1-yl)methyl]-7,8,15,16-tetrahydro-18,21-etheno-13,9-(metheno)-6,14,17-trioxa-2-thia-3,5-diazacyclononadeca[1,2,3-cd]indene-7-carboxylic Acid] | 5.73 | 0.122 | < 0.01 | 1.64
12 | Cc1c(Cl)c2c(Cl)c(C)c1-c1c(-c3ccc(F)cc3)sc3ncnc(c13)O[C@@H](C(=O)O)Cc1cc(ccc1OCc1ccnc([C@@]3(O)CCCC[C@@H]3O)n1)OC[C@@H](CN1CCN(C)CC1)O2 [Example 38, (7R,16R)-19,23-dichloro-10-({2-[(1S,2S)-1,2-dihydroxycyclohexyl]pyrimidin-4-yl}methoxy)-1-(4-fluorophenyl)-20,22-dimethyl-16-[(4-methylpiperazin-1-yl)methyl]-7,8,15,16-tetrahydro-18,21-etheno-9,13-(metheno)-6,14,17-trioxa-2-thia-3,5-diazacyclononadeca[1,2,3-cd]indene-7-carboxylic Acid] | 5.77 | 0.416 | 0.106 | 2.36
